Reference: ChEMBL document CHEMBL1201862, “PubChem BioAssay data set” (2004)
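Following 48 hours of exposure in 96-well plates, responses at five concentrations were used to interpolate endpoints linearly. The concentration for 50% growth inhibition is given as GI50.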 Calls of active or inactive are those of the source. No stated cut-off is given here; in the data, active = GI50 up to about 1.1 µM and inactive = higher.

Tests used:
Assay in all cases: NCI tumour cell line growth inhibition, 48 h
MOLT-4 = tested on: MOLT-4
EKVX = tested on: EKVX
U-251 = tested on: U-251
SF-539 = tested on: SF-539
UACC-257 = tested on: UACC-257
RPMI-8226 = tested on: RPMI-8226
SK-MEL-2 = tested on: SK-MEL-2
K562 = tested on: K562
NCI-H522 = tested on: NCI-H522
TK-10 = tested on: TK-10
DMS-273 = tested on: DMS-273
XF498 = tested on: XF498
SW-620 = tested on: SW-620
DMS-114 = tested on: DMS-114
SF-295 = tested on: SF-295
HCC 2998 = tested on: HCC 2998
COLO 205 = tested on: COLO 205
CCRF-CEM = tested on: CCRF-CEM
SNB-19 = tested on: SNB-19
IGROV-1 = tested on: IGROV-1
HOP-92 = tested on: HOP-92
KM-20L2 = tested on: KM-20L2
SK-MEL-28 = tested on: SK-MEL-28
DLD-1 = tested on: DLD-1
HCT-116 = tested on: HCT-116
SN12C = tested on: SN12C
HCT-15 = tested on: HCT-15
SK-OV-3 = tested on: SK-OV-3
NCI-H226 = tested on: NCI-H226
SF-268 = tested on: SF-268
OVCAR-4 = tested on: OVCAR-4
Malme-3M = tested on: Malme-3M
SK-MEL-5 = tested on: SK-MEL-5
LOX IMVI = tested on: LOX IMVI
KM12 = tested on: KM12
HOP-62 = tested on: HOP-62
UACC-62 = tested on: UACC-62
UO-31 = tested on: UO-31
NCI-H460 = tested on: NCI-H460
NCI-H23 = tested on: NCI-H23
A549 = tested on: A549
LXFL 529 = tested on: LXFL 529
786-0 = tested on: 786-0
CAKI-1 = tested on: CAKI-1
ACHN = tested on: ACHN
HL-60 = tested on: HL-60
SNB-75 = tested on: SNB-75
OVCAR-5 = tested on: OVCAR-5
M19-MEL = tested on: M19-MEL
SNB-78 = tested on: SNB-78
HT-29 = tested on: HT-29
OVCAR-3 = tested on: OVCAR-3
M14 = tested on: M14
OVCAR-8 = tested on: OVCAR-8

## Nc1ccc(C(=O)NN2C(=O)C(Cl)C2c2ccccc2O)cc1 (centres undefined)
MOLT-4
  GI50: 22.5 µM (inactive)
EKVX
  GI50: 49.3 µM (inactive)
U-251
  GI50: 36 µM (inactive)
SF-539
  GI50: 85.9 µM (inactive)
UACC-257
  GI50: > 100 µM (inactive)
RPMI-8226
  GI50: 44.5 µM (inactive)
SK-MEL-2
  GI50: > 100 µM (inactive)
K562
  GI50: 75 µM (inactive)
NCI-H522
  GI50: 62.2 µM (inactive)
TK-10
  GI50: > 100 µM (inactive)
DMS-273
  GI50: 55.2 µM (inactive)
XF498
  GI50: 37.3 µM (inactive)
SW-620
  GI50: 73.6 µM (inactive)
DMS-114
  GI50: 21.1 µM (inactive)
SF-295
  GI50: 47.2 µM (inactive)
HCC 2998
  GI50: 18.7 µM (inactive)
COLO 205
  GI50: 43.2 µM (inactive)
CCRF-CEM
  GI50: 6.01 µM (inactive)
SNB-19
  GI50: > 100 µM (inactive)
IGROV-1
  GI50: > 100 µM (inactive)
HOP-92
  GI50: > 100 µM (inactive)
KM-20L2
  GI50: 70 µM (inactive)
SK-MEL-28
  GI50: > 100 µM (inactive)
DLD-1
  GI50: 54.3 µM (inactive)
HCT-116
  GI50: 60.5 µM (inactive)
SN12C
  GI50: > 100 µM (inactive)
HCT-15
  GI50: 35.2 µM
SK-OV-3
  GI50: 71.6 µM (inactive)
NCI-H226
  GI50: 69.2 µM (inactive)
SF-268
  GI50: 70.1 µM (inactive)
OVCAR-4
  GI50: 60.1 µM (inactive)
Malme-3M
  GI50: > 100 µM (inactive)
SK-MEL-5
  GI50: 47.4 µM (inactive)
LOX IMVI
  GI50: 18.8 µM (inactive)
KM12
  GI50: 82.6 µM (inactive)
HOP-62
  GI50: 65.2 µM (inactive)
UACC-62
  GI50: 72.3 µM (inactive)
UO-31
  GI50: 21.9 µM (inactive)
NCI-H460
  GI50: 21.4 µM (inactive)
NCI-H23
  GI50: > 100 µM (inactive)
A549
  GI50: 93.1 µM (inactive)
LXFL 529
  GI50: 54.2 µM (inactive)
786-0
  GI50: 30.2 µM (inactive)
CAKI-1
  GI50: 47.8 µM (inactive)
ACHN
  GI50: 39.2 µM (inactive)
HL-60
  GI50: 1.15 µM (inactive)
SNB-75
  GI50: 52.2 µM (inactive)
OVCAR-5
  GI50: 41.7 µM (inactive)
M19-MEL
  GI50: 49.1 µM (inactive)
SNB-78
  GI50: > 100 µM (inactive)
HT-29
  GI50: > 100 µM (inactive)
OVCAR-3
  GI50: 31.7 µM (inactive)
M14
  GI50: 24 µM (inactive)
OVCAR-8
  GI50: 42.3 µM (inactive)
